Data on 4 compounds can be found in US9801895B1, “Cream formulation with amphotericin B and oil in water useful for topical application to mucous tissue and skin against diseases produced by leishmaniasis” (priority 2013, dated 2017).

For data set [1] the following is noted: biphasic elimination described for amphotericin B; cited from earlier work.
The nature of data set [2]: In vivo toxicity in infected hamsters (body weight, serum analytes, histopathology). The arrangement: species or system Golden hamsters (Mesocricetus aerates). The method, then: (§1) The evaluation of the therapeutic response and toxicity of the cream formulation was carried out in the hamster model for cutaneous leishmaniasis (Robledo et al, 2012) using the Golden hamsters (Mesocricetus aerates). Animals were handled under the same micro and macro environmental conditions. Experimental groups were named accordingly: A. Cream product formulation once a day; B. Cream product formulation twice a day; C. Placebo once a day and D. Placebo twice a day. Additionally, two groups of animals were used as control groups. One of them (E) was used to evaluate meglumine antimoniate as a control medicine at the curative (120 mg/kg day×10 days) and the other group (F) were infected and untreated animals.
Hamsters were weighed weekly from the beginning of the experiment until three months after the end of the treatment.
Effect of Treatments on Serum Levels of BUN, Creatinine and ALT:

For data set [3], the system named is Reconstructed Human corneal Epithelium tissue (HCE). Type of data set: cell-based. The method, then:
In Vitro Eye Irritation (Adapted from OECD Guideline No. 439):
For evaluation of eye irritation (cornea tissue) we used the Acute Eye irritation test using Reconstructed Human corneal Epithelium tissue (HCE).
Each test substance (cream product formulation, placebo, positive and negative controls) was applied topically. After 10 minutes, 2 hours and 24 hours of treatment cell viability was determined using MTT.

For data set [4] the following is noted: rat, in vivo.
Text: In Vivo Skin Absorption/Penetration. This Study Followed the OECD Test Guideline 427.
In this method the test substance is applied to the clipped skin of animals and is allowed to remain in contact with the skin for a fixed period of time under a non-occlusive cover to prevent ingestion of the test preparation. At the end of the exposure time the cover is removed and the skin is cleaned with an appropriate cleansing agent, the cover and the cleansing materials are retained for analysis and a fresh cover applied. Animals were exposed to the test preparation during 8 hours. One group was killed at the end of the exposure period. Other group was sacrificed at 48 hours and a third group was sacrificed at 72 hours after the end of exposure. The samples were assayed for concentration of amphotericin B by HPLC and the degree of percutaneous absorption was estimated.
Dosage and treatment groups: 12 animals were used, divided into three groups, which were applied the product under study. Four animals for each time interval: 8 h, 48 h and 72 h.
Environmental conditions and housing: The animals were randomly distributed in individual cages. During the experiment, water management and food was ad libitum. […]
In data set [5] the test system is reconstructed human tissue model (RHE). It is filed as cell-based. From the text:
In Vitro Skin Corrosion Test (Adapted from OECD Guideline No. 431):
To evaluate skin corrosion a reconstructed human tissue model (RHE) in three dimensions was used.

For data set [6], the system named is Trypanosoma cruzi (T. cruzi). As to conditions: given soon after infection at the onset of the acute phase; cited from earlier work.
For data set [7], the system named is 3T3. The experiment in a line: In vitro 3T3 NRU phototoxicity test (OECD Guideline No 432). Type of data set: cell-based.
Text: Phototoxicity/Photosensitisation Potential: The OECD Guideline No 432 was Followed.
Data set [8] deals with L. amazonensis. The experiment in a line: In vivo therapeutic response in the hamster model for cutaneous leishmaniasis. The arrangement: species or system Golden hamsters (Mesocricetus aerates). As to conditions: intramuscular, once a day x 10 days, 120 mg/kg day. The method, then:
In Vivo Therapeutic Response of Cream Product Formulation on L. amazonensis
as §1
The effectiveness of each treatment was assessed comparing the lesion sizes prior to and after treatments, using the following score system: cure (healing of 100% area and complete disappearance of the lesion); clinical improvement (reducing the size of the lesion in >30% of the area); clinical failure (reduction in the size of the lesion lower than 30% or increase in the size of the lesion); relapse (reactivation of lesion after cure).

`C[C@@H]1[C@H](O)[C@@H](C)/C=C/C=C/C=C/C=C/C=C/C=C/C=C/[C@H](O[C@@H]2O[C@H](C)[C@@H](O)[C@H](N)[C@@H]2O)C[C@@H]2O[C@](O)(C[C@@H](O)C[C@@H](O)[C@H](O)CC[C@@H](O)C[C@@H](O)CC(=O)O[C@H]1C)C[C@H](O)[C@H]2C(=O)O` [amphotericin B, Amphotericin B]: the “elimination half life, last elimination phase” value in data set [1] is 15 days. Further, in data set [2], the kidney histopathology result is “no significant changes”. Further, in data set [2] (one or two applications per day), the liver histopathology entry is on record as “no lesions or significant changes”. Besides, the “eye (corneal) irritation” value in data set [3] is reported as “no corneal irritation”. Also, in data set [4], the “amphotericin B in urine” value is “not detected”. Besides, the skin corrosion result in data set [5] was “does not show skin corrosion”.

Consider `O=C(Cn1ccnc1[N+](=O)[O-])NCc1ccccc1` [benznidazole], for which, in data set [6], the “effectiveness in curing the disease” value was approximately 100%.

Consider `C[C@H]1c2cccc(O)c2C(=O)C2=C(O)[C@]3(O)C(=O)C(C(N)=O)=C(O)[C@@H](N(C)C)[C@@H]3[C@@H](O)[C@@H]21` [doxycycline], for which, in data set [7], the phototoxicity classification result is recorded as “phototoxic”. In addition, the PIF in data set [7] (exposure to light) was found to be 9.3.

With meglumine antimoniate, the efficacy in data set [8] was found to be 71%.
